Legend:
α-synuclein oligomers = α-synuclein oligomers (Homo sapiens, UniProt P37840); test: Gaussia luciferase protein-fragment complementation cell assay of α-synuclein oligomers in H4 neuroglioma cells; assay type: cell-based; parameters: full-length human α-synuclein fused to the N-terminal fragment of Gaussia princeps luciferase (syn-luc1); full-length human α-synuclein fused to the C-terminal fragment of Gaussia princeps luciferase (syn-luc2); expressed in transfected cells; host or cells: H4 neuroglioma cells (ATCC, HTB-148), transient co-transfection; details: 1 μM or 10 μM, Example 9
Description: (§1) For controls in this assay, vehicle (i.e., DMSO), rapamycin, and bafilomycin A were used. Rapamycin, or sirolimus, is a small molecule that activates autophagy by inhibiting mTOR (mammalian target of rapamycin). […] To test this possibility, cells expressing α-synuclein were treated with each of the compounds and a cell permeable, resazurin-based assay was used to test for cell viability.
(§2) H4 neuroglioma cells (ATCC, HTB-148) were maintained in Dulbecco's Modified Eagle Medium plus high glucose, L-glutamine, and sodium pyruvate (ThermoFisher, 11995-065) with 10% heat-inactivated fetal bovine serum (ThermoFisher, 16140071) and 1% antibiotic-antimycotic cocktail (ThermoFisher, 15240062) at 37° C. and 5% CO2. DNA expression constructs encoding for full-length human α-synuclein fused to the N-terminal fragment of Gaussia princeps luciferase (syn-luc1), full-length human α-synuclein fused to the C-terminal fragment of Gaussia princeps luciferase (syn-luc2), and full-length Gaussia princeps luciferase were kindly provided by Dr. Pamela McLean, Mayo Clinic Jacksonville.^33 Cells were transiently co-transfected with syn-luc1 and syn-luc2 or transfected with luciferase alone using Superfect transfection reagent (Qiagen, 301305) according to the manufacturer's instructions. Twenty-four hours after transfection, cells were plated on a 96-well microplate at 60,000 cells per well. Twenty-four hours after plating, cells were treated with drugs or vehicle control. Following 24 hours of treatment, cells were washed 1 time with PBS and bioluminescence was measured using an automated CLARIOstar plate reader (Mandel, 430-0505). Cell permeable, native coelenterazine was used as the Gaussia luciferase substrate. Lyophilized coelenterazine (Nanolight, 303-500) was reconstituted in NanoFuel Solvent (Nanolight, 399-1), then diluted in PBS to 16.6 μg/mL, and dispensed per well to a final concentration of 20 μM). The bioluminescent signal generated by the luciferase enzyme was assessed at 470 nm over 5 seconds. Raw luminescence units were normalized to the DMSO vehicle control of each 96-well microplate. To assess cell viability, H4 neuroglioma cells were prepared and treated as described above and, 1 hour prior to viability analysis, cells were treated with PrestoBlue viability reagent (ThermoFisher, A13261) according to the manufacturer's instructions. Fluorescence was automatically measured using a CLARIOstar plate reader (Mandel, 430-0505) and then normalized to the fluorescence measure of the DMSO vehicle control.
We used a bioluminescent protein-fragment complementation assay in which human H4 neuroglioma cells co-express human α-synuclein tagged with the N- or C-terminal half of Gaussia princeps luciferase (FIG. 12). Reconstitution of a complete and active luciferase molecule from the fragments occurs upon α-synuclein oligomerization, and so luminescence provides an indirect measure of α-synuclein oligomer levels. H4 neuroglioma cells were co-transfected with α-syn luciferase fragments, and constructs were plated into a 96-well plate and treated with either 1 μM or 10 μM of each of the 19 drug compounds.

[1] = tested on: full-length Gaussia princeps luciferase; test: Activity of full-length Gaussia luciferase alone in H4 cells; assay type: cell-based; details: 10 μM, FIG. 14
Description: as §1, §2

control GFP C. elegans = test: Coiler score and locomotion of control GFP C. elegans; assay type: in vivo, Caenorhabditis elegans
Description: Animals were synchronized by isolating eggs using alkaline hypochlorite treatment and hatching overnight. Larvae were plated onto NGM agar plates with OP50 and grown for 4 days before recording locomotion. For individual C. elegans recordings, a single adult animal was randomly picked, washed for 1 to 2 minutes in M9 buffer, and then transferred to a fresh NGM plate without food for imaging. Video images were acquired (2 frames per second) for up to 6 minutes using a sCMOS camera (pco.edge, PCO) mounted on a stereomicroscope (Olympus MVX10 MacroView) controlled using the μManager software.^55 A total of 40 individual animals were imaged for each strain. For C. elegans population recordings, ten adult animals were randomly removed using an eyelash pick, washed for 1 minute in M9 buffer, and then transferred to a fresh NGM plate without food, with a ring of copper sulfate solution (150 mM) around the area of recording (a chemorepellent to keep the animals in the recording frame). Exploratory locomotion was recorded using a CCD camera (GX1920, Allied Vision) which was attached to a dissecting stereomicroscope (Leica M165C, 1.0× PlanApo lens). […] Using ImageJ, the displacement, perimeter, and area of each animal was calculated, from which a circularity value was computed using the following formula: circularity=4π(A/P^2), where A is the area of the animal's body and P is the perimeter of the animal's body (both expressed in arbitrary pixel units). […] Using MATLAB (Mathworks), various behavioural metrics including the coiler score were calculated, which is the percentage of frames with a circularity value >0.6. Speed was automatically computed from the ImageJ based WrmTrk plugin as the distance travelled by each animal (in pixels) over the amount of time that it was tracked (in seconds).56 Average speed was determined by calculating the weighted average of each tracked animal's speed within a single population of animals. […]
C. elegans were grown and maintained as previously described (Examples 1-6). […] After 72 hours of drug treatment, animals were randomly picked, washed, and recorded. […]

α-syn oligomers as measured by luciferase activity (α-synuclein oligomers): significant decrease
SMILES: Nc1nc(NC2CC2)c2ncn([C@H]3C=C[C@@H](CO)C3)c2n1 [Abacavir, abacavir]
changes in the activity of full-length Gaussia luciferase alone [1]: No statistically significant changes
speed of GFP worms (control GFP C. elegans; 100 μM): no differences
coiling / coiler score of control GFP animals (control GFP C. elegans; 100 μM of drug): no differences

— patent US20250134895A1, “METHODS AND COMPOSITIONS FOR TREATING ALPHA-SYNUCLEIN-MEDIATED NEURODEGENERATION” (UNIVERSITY HEALTH NETWORK, priority 2021, published 2025)
